Laboratory results reported in ChEMBL document CHEMBL4482318, “Sepiapterin reductase inhibitors” (2018).
The source made the active and inactive calls.

What was measured:
Assay type in all cases: functional, organism-based
Rattus norvegicus [1] = assay: Analgesic activity in rat model of chronic constriction injury-induced neuropathic pain assessed as increase in paw withdrawal threshold at 9.5 mg/kg, po administered via gavage once daily for 3 days by Von frey filament test
Rattus norvegicus [2] = assay: Analgesic activity in rat model of spared nerve injury-induced neuropathic pain assessed as increase in paw withdrawal threshold at 10 mg/kg, po administered via gavage once daily for 3 days by Von frey filament test
Rattus norvegicus [3] = assay: Analgesic activity in rat model of spared nerve injury-induced neuropathic pain assessed as increase in paw withdrawal threshold at 20 mg/kg, po administered via gavage once daily for 3 days by Von frey filament test
Rattus norvegicus [4] = assay: Analgesic activity in rat model of chronic constriction injury-induced neuropathic pain assessed as increase in paw withdrawal threshold at 10 mg/kg, po administered via gavage once daily for 3 days by Von frey filament test
Rattus norvegicus [5] = assay: Analgesic activity in rat model of spared nerve injury-induced neuropathic pain assessed as increase in paw withdrawal threshold at 15 mg/kg, po administered via gavage once daily for 3 days by Von frey filament test

## Cc1c(C(=O)N2CCN(C3CC(F)(F)C3)CC2)nnn1-c1nn2cccc2c(=O)[nH]1
Rattus norvegicus [1]
  Activity: Active

## Cc1c(C(=O)N2CCC2c2ccc(F)nc2)cnn1-c1nn2cccc2c(=O)[nH]1 (configuration not stated)
Rattus norvegicus [2]
  Activity: Active

## Cc1c(C(=O)N2CCC(c3nc(C#N)co3)CC2)cnn1-c1nn2cccc2c(=O)[nH]1
Rattus norvegicus [3]
  Activity: Active

## Cc1c(C(=O)N2CC(c3ccnc(F)c3)C2)cnn1-c1nn2cccc2c(=O)[nH]1
Rattus norvegicus [4]
  Activity: Active

## Cc1c(C(=O)N2CCN(C3CC(F)(F)C3)CC2)cnn1-c1nn2cccc2c(=O)[nH]1
Rattus norvegicus [1]
  Activity: Active

## Cc1c(C(=O)N2CC3CC(C2)N3C2CC2)cnn1-c1nn2cccc2c(=O)[nH]1
Rattus norvegicus [5]
  Activity: Active

## Cc1c(C(=O)N2CCN(C3CCC3(F)F)CC2)nnn1-c1nn2cccc2c(=O)[nH]1 (configuration not stated)
Rattus norvegicus [2]
  Activity: Active
